Row | Compound | melting point [°C]
1 | N#Cc1cccc2c1CC(=NN)c1cccc(F)c1S2 | 203 to 206
2 | CC1(C)CCc2c(N3CCCC3)nc3sc4c(NCCc5c[nH]cn5)ncnc4c3c2C1 | 192 to 193
3 | COC(=O)CC(=O)NC1CCCCC1 | 77 to 78
4 | CC(C)C[C@@H](CC(=O)O)NC(=O)[C@@H](CS)C(F)(F)F | 155 to 156
5 | O=c1[nH]c2cc(F)c(NCC3=CCCOC3)cc2o1 | 175 to 176
6 | CCOC(=O)c1ccc(NCCCCCCCCCCCCCC[Si](C)(C)C)cc1 | 91 to 92
7 | O=C(NNc1ccccc1)c1nc(Cl)c(Cl)[nH]1 | 229 to 230
8 | CCOC(=O)c1cn2c(n1)SCC2 | 107 to 109
9 | COc1cc(OC)c(-c2nncn2CC(C)C)cc1C=CC(=O)c1ccc(S(N)(=O)=O)cc1 | > 240
10 | CC(Cc1c[nH]c2ccccc12)(NC(=O)OCC1c2ccccc2-c2ccccc21)C(=O)NCCc1ccccc1 (centres undefined) | 179 to 181
11 | CC1Cc2ccc(Cl)cc2C(c2ccc([N+](=O)[O-])cc2)O1 (centres undefined) | 120 to 123
12 | CC(C)=CCc1cc2cc(-c3cc(O)cc(O)c3)oc2cc1O | 183 to 184
13 | COC(=O)N[C@H]1Cc2ccccc2C1=O | 157 to 159
14 | CCN[C@@H]1CCCC[C@H]1NS(=O)(=O)c1ccc(C)cc1 (relative stereo) | 112 to 114
15 | CCC1(C)CC(S(=O)(=O)C(Cl)(Cl)c2cccc(F)c2)=NO1 (centres undefined) | 100
16 | CC(C)(CO)NS(=O)(=O)c1ccc(Cl)s1 | 112
17 | O=C1C=C(Oc2ccc(C(F)(F)F)cc2)C(O)O1 (centres undefined) | 87 to 89
18 | O=C(O)c1ccc(OCCCc2ccc(O)c(O)c2)cc1 | 180 to 185
19 | Cc1ccc(S(=O)(=O)N2C(=O)[C@H]3CC=C[C@H]32)cc1 | 93 to 95
20 | O=C1OC(=O)[C@@H]2CCC[C@H]12 | 63 to 68
21 | O=C(NNC(=O)C(F)(F)C(O)(Cn1cncn1)c1ccc(F)cc1F)c1ccc(F)cc1 (centres undefined) | 127 to 130
22 | CN(C)S(=O)(=O)n1cc(S(=O)(=O)N2CCc3ccccc3C2)nc1C#N | 143 to 144
23 | CCC(C)Oc1ccccc1-c1ncc(C(N)=O)c(=O)[nH]1 (centres undefined) | 183 to 185
24 | Cc1nc(N)c(C(N)=S)s1 | 209 to 213
25 | COCc1c(C=O)ncc2[nH]c3cccc(Cc4ccc(Cl)cc4)c3c12 | 248 to 250

Row | Compound | melting point [°C]
26 | O=C1c2cc(I)ccc2-n2c1nc1ccccc1c2=O | 296 to 297
27 | COc1cccc(Nc2nc(NC(=O)C(C)(C)C)nc3[nH]c4ccccc4c23)c1 | 267
28 | COC1(c2nc3c(F)cccc3s2)C=CC(=NS(=O)(=O)c2ccc(C)cc2)C=C1 (centres undefined) | 176
29 | C=CCOc1cccc2nc(C)sc12 | 38 to 39
30 | CCOC(=O)c1cn(CC)c2nc(N3CCCC3)ncc2c1=O | 202
31 | C[C@@H]1CN(CCCn2c3ccc(O)cc3c3c4c(c(-c5ccccc5Cl)cc32)C(=O)NC4=O)C[C@H](C)N1 | 165 to 172
32 | CN(C)C=CC(=O)c1cccc(NC=O)c1 | 165 to 167
33 | COc1cc(Cl)cc2c1OC(COS(=O)(=O)c1ccc(C)cc1)C2 (centres undefined) | 99 to 102
34 | N#Cc1cc2c(cc1C(F)(F)F)[nH]c(=O)c(=O)n2OCc1ccccc1 | 265
35 | CCOC(=O)Cc1ccc(NC(=O)C(COc2ccc(Cl)cc2)NS(=O)(=O)c2ccc(Cl)cc2)cc1 (racemic) | 136 to 138
36 | CC(C)(C)OC(=O)NCCNC(=O)c1ncccc1N | 103 to 105
37 | CCOC(=O)C1(CCCCOc2ccc(C(=O)OC)cc2)Cc2c(OC)c(OC)c(OC)c(OC)c2C1=O (centres undefined) | 116 to 118
38 | O=C(Nc1ccc(Br)cc1)c1cc2ccccc2o1 | 178 to 180
39 | O=C(Nc1ccc(O)cc1)c1ccc(OC2CCCCO2)cc1 (centres undefined) | 173 to 174
40 | CC(=O)NC[C@H]1CN(c2ccc(N3CCC4(CC3)OCCO4)cc2)C(=O)O1 | 140 to 142
41 | COC(=N)N1CCC(c2n[nH]c3cc(Cl)ccc23)CC1 | 173 to 175
42 | O=C(O)c1cccc(NCCOCc2ccccc2)c1C(=O)O | 158 to 160
43 | CC(C)c1cccc(C(C)C)c1OC(=O)NP(=O)(Oc1ccccc1)Oc1ccccc1 | 132 to 135
44 | CC(C)Oc1ccc(C2CCc3cccc(C(=O)O)c3N2)cc1 (centres undefined) | 166 to 167
45 | CN(C)CCC1(CO)c2ccccc2N(C)c2ccccc21 | 150
46 | FC(F)(F)c1cccc(N2CCN(c3nc4cccc5c4n3CCC5)CC2)c1 | 158 to 159
47 | CCOC(=O)N1CCN(c2nn(-c3ccc(F)cc3)c3ccccc23)CC1 | 109 to 111
48 | CC(C)(C)OC(=O)Cc1n[nH]c2c(=O)[nH]c3cc(Cl)ccc3c(=O)c12 | 226 to 229
49 | Clc1cccc2c1CNC(=Nc1ccccc1)CS2 | 150 to 152
50 | COc1ccc(Oc2c(C)cc(O)cc2C)cc1C(C)C | 60 to 64

Row | Compound | melting point [°C]
51 | O=C(c1ccc(Oc2ccc(S(=O)c3ccc(Oc4ccc(C(=O)C(Cl)(Cl)Cl)cc4)cc3)cc2)cc1)C(Cl)(Cl)Cl | 154 to 156
52 | O=S(=O)(O)c1ncnn1CC(O)(Cc1ccccc1Cl)C1(Cl)CC1 (centres undefined) | 68 to 70
53 | CCOCCc1cc(O)ccc1N | 102
54 | C=CCNc1nc(NC(=O)C(C)(C)C)c2scc(C)c2n1 | 88 to 89
55 | O=C(Cc1ccccn1)c1nc2ccccc2[nH]1 | 202
56 | CN(C)CCNC(=O)c1ccc(C(Cc2ccc(F)cc2)C(=O)Nc2nc3ccccc3o2)cc1 (centres undefined) | 149 to 151
57 | CCNC(=O)c1c([Si](C)(C)C)sc(C)c1C | 90 to 94
58 | CC(C)OC(=O)C(C(=O)Nc1ccc(C(F)(F)F)cc1)=C1SCS1 | 151 to 152
59 | CCCCCCCCCCCN=C=S | 71 to 72
60 | O=[N+]([O-])c1cc(S(=O)(=O)C(F)(F)F)c(-c2ccc(Cl)cc2)[nH]1 | 174 to 180
61 | CCSCCOC(=O)C(Br)=Cc1cc(-n2c(=O)cc(C(F)(F)F)n(C)c2=O)ccc1Cl | 118 to 120
62 | CC(=O)c1ccc(Oc2ccc(I)cc2)cc1 | 99 to 101
63 | COC(=O)c1ccc(S(=O)(=O)Cc2c(O[C@H](Cn3ccnc3)c3ccccc3)ccc3c2CCCC3=O)cc1 | 105
64 | Cc1cc(C(=O)Nc2ccc3cc(CN4CCCC4)cnc3c2C)ccc1-c1ccc(F)cc1 | 200 to 202
65 | NC(=O)c1ccc(F)c2c1CC(N(CCCCc1c[nH]c3ccc(F)cc13)CC1CC1)CO2 (centres undefined) | 115
66 | CN1CCC(C(=NNc2ccc(F)cc2)c2ccccc2F)CC1 | 125 to 126
67 | CCOC(=O)C1=Cc2cc(Cl)cc(C=NO)c2OC1C(F)(F)F (centres undefined) | 187 to 188
68 | CC(C)(C)c1cc(SCCOC(=O)c2cc(C(C)(C)C)c(OC(=O)c3cc(C(C)(C)C)c(O)c(C(C)(C)C)c3)c(C(C)(C)C)c2)cc(C(C)(C)C)c1O | 168 to 170
69 | CC(NC(=O)C(CS)C(C)c1ccc(F)c(F)c1)C(=O)O (centres undefined) | 61
70 | O=c1oc2c(c(O)c1C(c1ccccc1)C1CC1)CCCCCCCC2 (centres undefined) | 87.6 to 90.4
71 | CCS(=O)(=O)N[C@H](C(=O)NCCc1ccc(OCc2ccccc2)c(OC)c1)C(C)C | 140 to 142
72 | CN1CCN(C(=O)C2CCC(Nc3ncc4ncnc(Nc5ccc(F)c(Cl)c5)c4n3)CC2)CC1 (centres undefined) | 194 to 197
73 | O=c1ccc(-c2ccc(OC(F)F)c(OCC3CC3)c2)n[nH]1 | 142
74 | COC(=O)c1ccc(=O)n(CCNC(=O)c2ccccc2)c1 | 190 to 191
75 | CCOC(=O)c1cnc2c(F)c(F)ccc2c1Cl | 114

Row | Compound | melting point [°C]
76 | COC(=O)C1=C(C#N)NC(C)=C(C(=O)OC(C)C)C1c1cccc([N+](=O)[O-])c1 (centres undefined) | 120 to 122
77 | O=C(NC[C@@H]1CN2C(=O)C[C@H]2O1)c1cc(F)ccc1F (racemic) | 88.8 to 90.7
78 | CNC(=O)C1CN(CC(=O)Nc2c(C)cc(C)cc2C)CCN1CCCC(c1ccc(F)cc1)c1ccc(F)cc1 (centres undefined) | 82.3
79 | CC12CCC(C(=O)O)=CC1=CCC1C2CCC2(C)C(C(=O)c3ccccc3)CCC12 (centres undefined) | 222 to 225
80 | COCOc1cc2c(cc1C=O)C(C)(C)CCC2(C)C | 84 to 85
81 | CCCn1nc2c(N)nc3c(c2c1CCCc1cc(-c2ccccc2)no1)CCCC3 | 154 to 155
82 | O=C(O)Cc1c(Oc2ccc3c(c2)OCO3)cccc1Oc1ccc2c(c1)OCO2 | 176 to 177
83 | CCc1cc(C=Cc2nc3ccccc3o2)c(=O)[nH]c1C | 262 to 264
84 | O=C(O)COc1ccc2c(c1)-c1nc(S(=O)(=O)C(c3ccccc3)c3ccccc3)sc1CC2 | 169 to 170
85 | O=C(CO/N=C(\C(=O)O)c1ccco1)NOC(c1ccccc1)c1ccccc1 | 138 to 140
86 | C=CCN1C(C)(C)CC(OC(=O)CCC(C)(c2ccc(O)c(C(C)(C)C)c2)c2ccc(O)c(C(C)(C)C)c2)CC1(C)C | 197
87 | O=C1c2ccccc2C2C(c3ccccc31)C2(F)F (centres undefined) | 150
88 | CN1CC(CCO)N2c3ccccc3Oc3ccccc3C2C1 (centres undefined) | 138 to 139
89 | COCCOc1ccc(CCC(=O)NS(=O)(=O)c2ccc(Cl)cc2)c(Oc2ncc(C(F)(F)F)cc2Cl)c1 | 140 to 142
90 | O=C(O)[C@@H]1O[C@@H](c2ccccc2)N(NS(=O)(=O)c2ccc([N+](=O)[O-])cc2)[C@H]1c1ccccc1 | 61 to 65
91 | CC1=C(C(=O)OCOC(=O)C(C)(C)C)N2C(=O)C(NC(=O)OC(C)(C)C)C2SC1 (centres undefined) | 97
92 | c1ccc(N2C(=NCCCn3ccnc3)c3cccc4cccc2c34)cc1 | 103 to 105
93 | NNC(=S)c1cc(F)c2ncc(C(=O)NCc3ccc(Cl)cc3)c(O)c2c1 | 317 to 319
94 | COc1ccccc1Nc1nnc(Cc2ccncc2)c2ccccc12 | 190 to 191
95 | CCCC[C@H](NC(=O)[C@H](C)NC(=O)OCc1ccccc1)C(=O)CSCc1ccco1 | 85 to 87
96 | CN1C(=O)CNC(c2cccc(Cl)c2)c2cc(C(O)(c3ccc(Cl)cc3)c3cncn3C)ccc21 (centres undefined) | 208
97 | C=CCc1c(Cl)nc(NC=O)nc1Cl | 85 to 86
98 | C=C1CCN([C@H](C)[C@](O)(Cn2cncn2)c2ccc(F)cc2F)CC1 | 86 to 87
99 | CC1=NC(NC(=O)Nc2cccc(C)c2)C(=O)N(CC(=O)C2CCCCCC2)c2c(C)cccc21 (centres undefined) | 171 to 175
